In US11547697B2, “Heterocyclic compounds and uses thereof” (MILLENNIUM PHARMACEUTICALS, INC., priority 2009, dated 2023) one finds IC50 data, which are given here for 16 compounds.

pIC50: −log10 of the molar value.

Format in all cases: biochemical
For one assay, the target named is p110γ (Homo sapiens (Human), UniProt P48736). The experiment in a line: PI 3-Kinase (human) HTRF assay, p110γ. Conditions: in vitro; read-out: PI3K γ IC50. (Time-resolved FRET reads energy transfer from a long-lived donor to a nearby acceptor.)
For the next assay, the target named is p110α/p85α (Homo sapiens (Human), UniProt P42336). Nature of the assay: PI 3-Kinase (human) HTRF assay, p110α/p85α. Conditions: in vitro; read-out: PI3K α IC50.
Another assay concerns the target p110δ/p85α (Homo sapiens (Human), UniProt O00329). Nature of the assay: PI 3-Kinase (human) HTRF assay, p110δ/p85α. Conditions: in vitro; read-out: PI3K δ IC50.
The target of a further assay is p110β/p85α (Homo sapiens (Human), UniProt P42338). The experiment in a line: PI 3-Kinase (human) HTRF assay, p110β/p85α. Conditions: in vitro; read-out: PI3K β IC50.

By pIC50 is commonly meant the IC50 on a negative log10 scale, so that one unit is a factor of ten.

p110α/p85α, sequence (P42336 whole entry): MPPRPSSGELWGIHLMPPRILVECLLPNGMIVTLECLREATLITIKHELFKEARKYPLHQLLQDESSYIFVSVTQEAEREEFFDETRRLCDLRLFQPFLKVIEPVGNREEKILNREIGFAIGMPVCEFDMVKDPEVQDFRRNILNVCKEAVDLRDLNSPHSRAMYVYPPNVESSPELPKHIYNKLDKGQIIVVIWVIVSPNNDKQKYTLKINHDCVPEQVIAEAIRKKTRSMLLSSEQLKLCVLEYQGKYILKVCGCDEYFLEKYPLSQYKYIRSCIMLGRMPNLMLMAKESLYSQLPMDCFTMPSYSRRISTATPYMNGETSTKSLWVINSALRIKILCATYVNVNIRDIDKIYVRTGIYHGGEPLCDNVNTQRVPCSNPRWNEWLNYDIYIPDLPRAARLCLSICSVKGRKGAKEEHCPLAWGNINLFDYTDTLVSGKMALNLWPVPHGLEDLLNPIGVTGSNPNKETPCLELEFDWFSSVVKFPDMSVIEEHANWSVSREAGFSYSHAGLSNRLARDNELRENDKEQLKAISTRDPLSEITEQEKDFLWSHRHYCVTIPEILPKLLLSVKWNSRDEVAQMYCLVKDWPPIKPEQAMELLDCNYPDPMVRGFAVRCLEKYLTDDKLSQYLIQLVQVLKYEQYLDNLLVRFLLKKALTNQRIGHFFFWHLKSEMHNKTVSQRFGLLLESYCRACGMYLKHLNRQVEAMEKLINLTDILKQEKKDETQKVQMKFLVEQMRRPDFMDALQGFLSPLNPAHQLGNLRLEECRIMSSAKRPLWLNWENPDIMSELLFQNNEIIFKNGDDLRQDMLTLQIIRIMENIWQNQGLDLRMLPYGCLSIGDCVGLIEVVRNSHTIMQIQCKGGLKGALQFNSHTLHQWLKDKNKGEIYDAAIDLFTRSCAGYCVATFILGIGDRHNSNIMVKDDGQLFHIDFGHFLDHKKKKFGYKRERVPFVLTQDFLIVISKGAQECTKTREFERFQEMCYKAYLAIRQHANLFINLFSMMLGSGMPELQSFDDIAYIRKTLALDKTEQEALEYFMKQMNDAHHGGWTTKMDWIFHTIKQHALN
p110α/p85α, sequence (P27986 whole entry partner): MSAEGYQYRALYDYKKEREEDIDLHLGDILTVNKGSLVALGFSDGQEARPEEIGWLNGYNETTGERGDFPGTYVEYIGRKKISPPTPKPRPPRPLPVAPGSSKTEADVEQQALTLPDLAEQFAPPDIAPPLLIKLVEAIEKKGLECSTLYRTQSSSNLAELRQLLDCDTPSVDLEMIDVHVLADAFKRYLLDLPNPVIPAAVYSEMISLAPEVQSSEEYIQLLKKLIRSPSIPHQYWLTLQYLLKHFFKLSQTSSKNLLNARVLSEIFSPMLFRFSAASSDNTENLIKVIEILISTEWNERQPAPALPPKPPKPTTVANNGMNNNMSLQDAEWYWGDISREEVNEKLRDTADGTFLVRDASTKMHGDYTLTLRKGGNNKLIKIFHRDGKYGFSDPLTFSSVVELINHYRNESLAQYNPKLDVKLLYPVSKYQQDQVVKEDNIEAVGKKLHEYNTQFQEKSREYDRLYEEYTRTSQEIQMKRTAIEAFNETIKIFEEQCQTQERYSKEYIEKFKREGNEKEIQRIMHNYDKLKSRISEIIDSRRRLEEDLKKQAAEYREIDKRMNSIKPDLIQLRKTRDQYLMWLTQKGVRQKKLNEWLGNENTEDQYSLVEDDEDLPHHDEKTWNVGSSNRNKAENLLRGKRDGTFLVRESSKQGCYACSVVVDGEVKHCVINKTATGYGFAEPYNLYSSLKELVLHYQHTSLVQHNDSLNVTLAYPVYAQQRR
p110β/p85α, sequence (P42338 whole entry): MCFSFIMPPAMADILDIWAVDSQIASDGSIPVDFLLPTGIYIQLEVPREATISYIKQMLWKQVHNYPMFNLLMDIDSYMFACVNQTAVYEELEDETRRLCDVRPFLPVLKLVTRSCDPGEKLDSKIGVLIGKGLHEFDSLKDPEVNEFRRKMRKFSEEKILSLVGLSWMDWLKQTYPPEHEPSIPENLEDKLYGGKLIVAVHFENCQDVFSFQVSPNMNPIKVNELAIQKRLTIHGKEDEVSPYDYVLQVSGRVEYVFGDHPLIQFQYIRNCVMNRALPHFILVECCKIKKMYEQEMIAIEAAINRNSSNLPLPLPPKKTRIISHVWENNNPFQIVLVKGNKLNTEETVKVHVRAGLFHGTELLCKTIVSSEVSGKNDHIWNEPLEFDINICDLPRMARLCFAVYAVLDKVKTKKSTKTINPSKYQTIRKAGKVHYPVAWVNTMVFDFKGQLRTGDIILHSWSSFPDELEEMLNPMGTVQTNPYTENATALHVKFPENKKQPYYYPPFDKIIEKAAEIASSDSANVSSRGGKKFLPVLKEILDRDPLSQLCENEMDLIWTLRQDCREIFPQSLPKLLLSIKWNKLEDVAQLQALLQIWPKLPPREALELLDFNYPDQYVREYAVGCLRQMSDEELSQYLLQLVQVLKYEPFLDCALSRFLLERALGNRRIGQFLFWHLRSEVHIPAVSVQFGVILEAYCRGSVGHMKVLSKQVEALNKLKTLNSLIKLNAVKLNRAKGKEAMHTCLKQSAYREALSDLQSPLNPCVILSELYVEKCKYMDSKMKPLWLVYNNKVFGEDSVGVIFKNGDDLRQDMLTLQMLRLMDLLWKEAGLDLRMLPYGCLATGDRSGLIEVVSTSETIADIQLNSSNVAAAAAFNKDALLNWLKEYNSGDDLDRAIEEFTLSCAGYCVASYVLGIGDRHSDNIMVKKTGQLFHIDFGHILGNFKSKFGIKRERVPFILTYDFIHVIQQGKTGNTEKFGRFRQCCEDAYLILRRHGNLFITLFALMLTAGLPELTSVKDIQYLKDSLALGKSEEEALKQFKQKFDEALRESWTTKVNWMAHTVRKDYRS
p110β/p85α, sequence (P27986 whole entry partner): as the sequence (P27986 whole entry partner) above
p110δ/p85α, sequence (O00329 whole entry): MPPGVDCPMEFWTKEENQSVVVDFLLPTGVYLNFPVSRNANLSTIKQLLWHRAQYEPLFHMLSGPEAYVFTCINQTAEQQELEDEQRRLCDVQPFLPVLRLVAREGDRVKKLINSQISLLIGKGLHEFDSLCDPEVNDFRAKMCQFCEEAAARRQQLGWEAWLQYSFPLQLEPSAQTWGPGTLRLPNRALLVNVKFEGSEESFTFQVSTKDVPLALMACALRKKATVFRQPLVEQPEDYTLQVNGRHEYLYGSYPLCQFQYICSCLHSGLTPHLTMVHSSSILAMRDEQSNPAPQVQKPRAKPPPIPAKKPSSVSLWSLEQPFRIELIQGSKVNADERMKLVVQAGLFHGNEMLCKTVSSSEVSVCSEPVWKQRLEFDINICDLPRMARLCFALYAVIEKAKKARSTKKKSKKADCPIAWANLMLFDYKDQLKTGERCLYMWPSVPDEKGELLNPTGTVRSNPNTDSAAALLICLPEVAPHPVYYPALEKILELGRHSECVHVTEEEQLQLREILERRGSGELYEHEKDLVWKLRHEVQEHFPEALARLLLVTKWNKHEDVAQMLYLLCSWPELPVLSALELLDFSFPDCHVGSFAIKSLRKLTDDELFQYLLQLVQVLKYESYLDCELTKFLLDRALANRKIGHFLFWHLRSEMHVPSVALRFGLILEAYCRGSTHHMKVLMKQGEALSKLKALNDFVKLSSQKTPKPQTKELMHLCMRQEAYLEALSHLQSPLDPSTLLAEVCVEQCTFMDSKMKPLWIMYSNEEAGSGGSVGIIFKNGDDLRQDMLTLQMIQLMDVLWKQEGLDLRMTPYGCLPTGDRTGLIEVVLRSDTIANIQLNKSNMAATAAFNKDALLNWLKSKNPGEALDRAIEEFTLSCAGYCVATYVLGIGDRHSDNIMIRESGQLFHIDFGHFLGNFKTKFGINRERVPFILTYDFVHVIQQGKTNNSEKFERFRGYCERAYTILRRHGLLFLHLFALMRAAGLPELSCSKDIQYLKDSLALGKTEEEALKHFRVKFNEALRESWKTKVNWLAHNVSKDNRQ
p110δ/p85α, sequence (P27986 whole entry partner): as the sequence (P27986 whole entry partner) above
p110γ, sequence (P48736 whole entry): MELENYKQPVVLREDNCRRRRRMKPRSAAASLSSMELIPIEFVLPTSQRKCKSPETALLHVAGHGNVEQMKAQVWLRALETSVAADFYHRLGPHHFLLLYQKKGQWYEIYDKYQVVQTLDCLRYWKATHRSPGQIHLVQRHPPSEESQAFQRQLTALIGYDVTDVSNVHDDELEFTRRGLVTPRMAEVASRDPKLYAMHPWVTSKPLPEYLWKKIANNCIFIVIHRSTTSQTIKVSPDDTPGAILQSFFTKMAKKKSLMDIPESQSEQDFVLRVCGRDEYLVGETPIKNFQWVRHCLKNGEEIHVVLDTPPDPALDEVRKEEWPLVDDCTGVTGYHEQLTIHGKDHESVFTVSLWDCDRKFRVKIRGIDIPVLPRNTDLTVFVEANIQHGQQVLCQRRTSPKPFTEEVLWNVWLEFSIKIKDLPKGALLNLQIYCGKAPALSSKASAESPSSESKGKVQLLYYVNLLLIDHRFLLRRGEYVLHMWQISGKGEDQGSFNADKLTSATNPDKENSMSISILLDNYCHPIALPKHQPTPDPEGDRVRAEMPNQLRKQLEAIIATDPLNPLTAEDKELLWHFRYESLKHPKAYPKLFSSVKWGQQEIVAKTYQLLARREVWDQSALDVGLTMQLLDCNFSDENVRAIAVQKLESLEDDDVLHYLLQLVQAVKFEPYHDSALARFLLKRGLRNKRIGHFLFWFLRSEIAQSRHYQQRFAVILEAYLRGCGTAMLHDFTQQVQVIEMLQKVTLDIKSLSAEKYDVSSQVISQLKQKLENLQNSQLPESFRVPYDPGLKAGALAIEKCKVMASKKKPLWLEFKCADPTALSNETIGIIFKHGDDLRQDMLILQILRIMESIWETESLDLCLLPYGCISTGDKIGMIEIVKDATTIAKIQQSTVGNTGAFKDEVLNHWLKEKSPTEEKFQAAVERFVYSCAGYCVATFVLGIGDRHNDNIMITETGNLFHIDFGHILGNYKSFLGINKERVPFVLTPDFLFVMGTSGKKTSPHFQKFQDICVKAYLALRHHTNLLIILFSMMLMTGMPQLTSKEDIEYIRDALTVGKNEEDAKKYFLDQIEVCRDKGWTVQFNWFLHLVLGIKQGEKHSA

For `CCN(CC)CCCNC(=O)c1cnc2ccc(-c3ccc4oc(N)nc4c3)cn12` [compound 302], the pIC50 at p110γ is more than 5.00; on p110α/p85α, more than 6.00; at p110δ/p85α it was more than 7.00; on p110β/p85α it was more than 5.00.

As for `CN1CCN(CCNC(=O)c2cnc3ccc(-c4ccc5oc(N)nc5c4)cn23)CC1` [compound 306], the pIC50 on p110γ was more than 6.00; at p110α/p85α, more than 7.00; on p110δ/p85α it was more than 6.00; at p110β/p85α, more than 6.00.

As for `CC(=O)Nc1nc(C)c(-c2ccc3oc(N)nc3c2)s1` [compound 312], the pIC50 at p110γ is more than 7.00; at p110α/p85α, more than 6.00; on p110δ/p85α, more than 6.00; on p110β/p85α, more than 5.00.

In the case of `Nc1nc2cc(-c3ccc4ncc(N5CC(N6CCCC6)C5)nc4c3)ccc2o1` [compound 314], the pIC50 on p110γ was more than 5.00; at p110α/p85α it was more than 6.00; at p110δ/p85α, more than 5.00; on p110β/p85α it was more than 5.00.

Consider `Nc1nc2cc(-c3ccc4ncc(N5CC(n6ccnc6)C5)nc4c3)ccc2o1` [compound 319], for which the pIC50 was more than 6.00 at p110γ, more than 7.00 on p110α/p85α, more than 5.00 at p110δ/p85α and more than 6.00 at p110β/p85α.

On to `Cc1ccn(C2CN(c3cnc4ccc(-c5ccc6oc(N)nc6c5)cc4n3)C2)n1` [compound 320], for which the pIC50 on p110γ is more than 5.00; on p110α/p85α, more than 7.00; on p110δ/p85α it was more than 5.00; on p110β/p85α, more than 5.00.

For `Nc1nc2cc(-c3ccc4ncc(N5CC(N6CC[C@H](O)C6)C5)nc4c3)ccc2o1` [compound 322], the negative-log IC50 (pIC50) at p110γ is more than 6.00; at p110α/p85α, more than 7.00; on p110δ/p85α it was more than 5.00; at p110β/p85α, more than 6.00.

With `CN1CCN(C2CN(c3cnc4ccc(-c5ccc6oc(N)nc6c5)cc4n3)C2)CC1=O` [compound 323], the negative-log IC50 (pIC50) at p110γ is more than 6.00; on p110α/p85α, more than 7.00; on p110δ/p85α, more than 5.00; on p110β/p85α it was more than 5.00.

Turning to `CCN(CC)C1CN(c2cnc3ccc(-c4ccc5oc(N)nc5c4)cc3n2)C1` [compound 324], the negative-log IC50 (pIC50) at p110γ was more than 6.00; on p110α/p85α it was more than 7.00; at p110δ/p85α, more than 5.00; on p110β/p85α, more than 5.00.

Consider `Nc1nc2cc(-c3ccc4ncc(N5CC(N6CCNC(=O)C6)C5)nc4c3)ccc2o1` [compound 325], for which the negative logarithm of the IC50 (pIC50) is more than 7.00 at p110γ, more than 7.00 at p110α/p85α, more than 5.00 on p110δ/p85α and more than 6.00 on p110β/p85α.

With `Nc1nc2cc(-c3ccc4ncc(N5CC(N6CCNCC6)C5)nc4c3)ccc2o1` [compound 326], the pIC50 on p110γ is more than 6.00; at p110α/p85α, more than 7.00; on p110δ/p85α, more than 6.00; at p110β/p85α it was more than 6.00.

Regarding `CC(=O)N1CCN(C2CN(c3cnc4ccc(-c5ccc6oc(N)nc6c5)cc4n3)C2)CC1` [compound 327], the pIC50 on p110γ is more than 6.00; at p110α/p85α, more than 7.00; on p110δ/p85α, more than 6.00; on p110β/p85α it was more than 5.00.

Consider `CS(=O)(=O)N1CCN(C2CN(c3cnc4ccc(-c5ccc6oc(N)nc6c5)cc4n3)C2)CC1` [compound 328], for which the pIC50 on p110γ was more than 5.00; at p110α/p85α it was more than 7.00; on p110δ/p85α, more than 5.00; at p110β/p85α, more than 5.00.

Turning to `CCN1CCN(C2CN(c3cnc4ccc(-c5ccc6oc(N)nc6c5)cc4n3)C2)CC1` [compound 329], the negative-log IC50 (pIC50) is more than 5.00 at p110γ, more than 7.00 at p110α/p85α, more than 6.00 at p110δ/p85α and more than 6.00 on p110β/p85α.

As to `CC(C)N1CCN(C2CN(c3cnc4ccc(-c5ccc6oc(N)nc6c5)cc4n3)C2)CC1` [compound 331], the negative logarithm of the IC50 (pIC50) is more than 5.00 on p110γ, more than 7.00 on p110α/p85α, more than 5.00 at p110δ/p85α and more than 5.00 on p110β/p85α.

On to `C[C@H]1CN(c2cnc3ccc(-c4ccc5oc(N)nc5c4)cc3n2)CCN1C` [compound 332], for which the pIC50 on p110γ was more than 6.00; on p110α/p85α it was more than 6.00; at p110δ/p85α, more than 5.00; at p110β/p85α, more than 7.00.
